Source: ChEMBL document CHEMBL1147476, “Synthesis and evaluation of aminophosphinic acid derivatives as inhibitors of renal dipeptidase” (Bioorg Med Chem Lett, 2004)

target: T1, Dipeptidase 1 (Homo sapiens, UniProt P16444); assay: Concentration required to inhibit renal dipeptidase (RDP) by 50% in crude lysates prepared from human colon cancer
T1 sequence (P16444 whole entry): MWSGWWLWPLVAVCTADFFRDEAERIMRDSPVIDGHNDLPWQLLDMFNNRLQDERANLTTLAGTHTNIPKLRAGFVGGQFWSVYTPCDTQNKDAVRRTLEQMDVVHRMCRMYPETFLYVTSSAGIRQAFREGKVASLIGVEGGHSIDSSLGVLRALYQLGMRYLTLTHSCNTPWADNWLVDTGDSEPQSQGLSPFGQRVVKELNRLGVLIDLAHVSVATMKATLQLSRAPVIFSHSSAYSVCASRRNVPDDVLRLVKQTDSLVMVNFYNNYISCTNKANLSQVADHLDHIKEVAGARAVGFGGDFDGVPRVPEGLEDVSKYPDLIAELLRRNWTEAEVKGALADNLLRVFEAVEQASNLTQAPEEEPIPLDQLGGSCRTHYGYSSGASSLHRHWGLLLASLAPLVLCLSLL

With `NC(CC1CCCCC1)P(=O)(O)C/C(=C\c1ccc(Br)cc1)C(=O)O` (centres undefined) as the compound, how does the IC50 read?
Its IC50 is 6 nM.

Which IC50 does the source give for `NC(CC1CCCCC1)P(=O)(O)C/C(=C/c1cccc(I)c1)C(=O)O` (centres undefined) here?
Its IC50 is 250 nM.

How did the IC50 turn out when `NC(CC1CCCCC1)P(=O)(O)C/C(=C/c1ccc(F)c(Br)c1)C(=O)O` (centres undefined) was run?
Its IC50 is 3000 nM.

For `NC(CC1CCCCC1)P(=O)(O)C/C(=C/c1ccc(F)cc1)C(=O)O` (centres undefined), which IC50 is on record?
The IC50 was 15 nM.

With `NC(CC1CCCCC1)P(=O)(O)C/C(=C/c1ccc(Cl)c(Cl)c1)C(=O)O` (centres undefined) as the compound, how does the IC50 read?
Its IC50 is 200 nM.

`Nc1ccc(/C=C(\CP(=O)(O)C(N)CC2CCCCC2)C(=O)O)cc1` (centres undefined) was tested. Which IC50 did it give?
The IC50 was 70 nM.

For `NC(CC1CCCCC1)P(=O)(O)C/C(=C/c1ccc(F)c(Cl)c1)C(=O)O` (centres undefined), which IC50 is on record?
Its IC50 is 350 nM.

For `NC(CC1CCCCC1)P(=O)(O)C/C(=C\c1ccc(F)cc1)C(=O)O` (centres undefined), which IC50 is on record?
Its IC50 is 5 nM.

With `Nc1ccc(/C=C(/CP(=O)(O)C(N)CC2CCCCC2)C(=O)O)cc1` (centres undefined) as the compound, how does the IC50 read?
The IC50 was 150 nM.

For `NC(CC1CCCCC1)P(=O)(O)C/C(=C/c1ccc(Br)cc1)C(=O)O` (centres undefined), which IC50 is on record?
Its IC50 is 30 nM.

Which IC50 does the source give for `NC(CC1CCCCC1)P(=O)(O)C/C(=C\c1cccc(I)c1)C(=O)O` (centres undefined) here?
Its IC50 is 45 nM.

With `NC(CC1CCCCC1)P(=O)(O)C/C(=C\c1ccccc1I)C(=O)O` (centres undefined) as the compound, how does the IC50 read?
Its IC50 is 100 nM.

For `NC(CC1CCCCC1)P(=O)(O)C/C(=C\c1ccc(I)cc1)C(=O)O` (centres undefined), which IC50 is on record?
The IC50 was 8 nM.

Which IC50 does the source give for `NC(CC1CCCCC1)P(=O)(O)C/C(=C/c1ccccc1I)C(=O)O` (centres undefined) here?
The IC50 was 1000 nM.

With `NC(CC1CCCCC1)P(=O)(O)C/C(=C\c1ccc(F)c(Br)c1)C(=O)O` (centres undefined) as the compound, how does the IC50 read?
The IC50 was 40 nM.

For `NC(CC1CCCCC1)P(=O)(O)C/C(=C\c1ccc(Cl)c(Cl)c1)C(=O)O` (centres undefined), which IC50 is on record?
Its IC50 is 20 nM.

With `NC(CC1CCCCC1)P(=O)(O)C/C(=C\c1ccc(F)c(Cl)c1)C(=O)O` (centres undefined) as the compound, how does the IC50 read?
The IC50 was 30 nM.

For `NC(CC1CCCCC1)P(=O)(O)C/C(=C/c1ccc(I)cc1)C(=O)O` (centres undefined), which IC50 is on record?
Its IC50 is 25 nM.

Which IC50 does the source give for `NC(CC1CCCCC1)P(=O)(O)C/C(=C/c1ccc(C(F)(F)F)cc1)C(=O)O` (centres undefined) here?
The IC50 was 200 nM.
